In this test the target is T1, HSD17B13 enzyme (Homo sapiens, UniProt Q7Z5P4).
T1 construct: His; made in house; host or cells: E. coli
T1 sequence (Q7Z5P4 20-300): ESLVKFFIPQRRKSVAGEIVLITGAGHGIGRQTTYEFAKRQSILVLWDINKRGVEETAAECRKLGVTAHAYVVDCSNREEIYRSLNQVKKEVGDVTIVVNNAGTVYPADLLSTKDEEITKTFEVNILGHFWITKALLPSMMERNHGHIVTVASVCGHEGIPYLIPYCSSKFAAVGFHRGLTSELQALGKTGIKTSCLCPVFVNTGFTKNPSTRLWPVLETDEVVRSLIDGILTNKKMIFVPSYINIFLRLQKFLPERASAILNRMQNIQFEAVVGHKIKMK
Kind of test: NADH detection assay (fluorescence based LTB3 assay) for HSD17B13 activity. The conditions noted are these: substrate 25 μM LTB3, 3 mM NAD+, 125 nM HSD17B13 enzyme, 1 hour at 26.5° C. In kind it is biochemical. Here is the method:
Example A: NADH Detection Assay for Evaluation of HSD17ß13 Activity and Identification of Inhibitors
The fluorescence based Leukotriene B3 (LTB3) assay monitors the fluorescence of NADH, which is generated from NAD+ during the dehydrogenation of the substrate LTB3. The reactions were performed in a 384-well plates (Greiner; #655076) in a 20 μl reaction volume containing the following reagents (final concentrations): 25 μM LTB3 (Cayman; #20109); 3 mM NAD+ (Sigma; #N0623); 125 nM HSD17B13 enzyme (in-house; E. coli expressed His-tagged, purified, soluble protein); […] potassium phosphate buffer, pH 7.4; and 1% DMSO. Reactions were initiated by co-addition of NAD+ and enzyme, and monitored for 1 hour at 26.5° C. Generation of NADH was measured as the fluorescence signal (Excitation at 340 nm and Emission at 445 nm) at 1 hour minus the baseline fluorescence at t=0. Fluorescence signals in the absence of LTB3 (negative control values), were subtracted from all values so that the results reflected substrate-dependent production of NADH. NADH standards were included to allow the conversion of relative fluorescence units into rates of enzyme activity. Enzyme activity in the presence of test compounds was expressed as a percentage of the uninhibited enzyme activity, and plotted versus inhibitor concentration. Non-linear regression was performed using a four-parameter logistic model and GraphPad Prism software (GraphPad Software, La Jolla, CA). Ten concentrations of inhibitor were tested (in the range of 30 μM-2.5 nM), and two independent assessments were performed at each concentration.

Some results are limits rather than exact numbers.

`CNC(=O)c1cc(Oc2ccc(F)c(OC)c2)nc(-c2cccc(O)c2F)c1` [Example 70, 2-(2-fluoro-3-hydroxyphenyl)-6-(4-fluoro-3-methoxyphenoxy)-N-methylpyridine-4-carboxamide] registered an IC50 above 30 µM.

`Oc1cc(Oc2cccc(N3CCOCC3)n2)ccc1F` [Example 72, 2-fluoro-5-{[6-(morpholin-4-yl)pyridin-2-yl]oxy}phenol] gave an IC50 above 30 µM.

Regarding `O=c1ccc(-c2cccc(Oc3ccc(F)c(O)c3)n2)cn1C(F)F` [Example 73, 1′-(difluoromethyl)-6-(4-fluoro-3-hydroxyphenoxy)-[2,3′-bipyridin]-6′(1′H)-one], the 50% inhibitory concentration (IC50) is above 30 µM.

For `COc1cccc(F)c1-c1cccc(Oc2ccc(F)c(O)c2)n1` [Example 74, 2-fluoro-5-((6-(2-fluoro-6-methoxyphenyl)pyridin-2-yl)oxy)phenol], the half-inhibitory concentration (IC50) is above 30 µM.

With `CS(=O)(=O)c1cccc(-c2cccc(Oc3ccc(F)c(O)c3)n2)c1` [Example 75, 2-fluoro-5-((6-(3-(methylsulfonyl)phenyl)pyridin-2-yl)oxy)phenol], the IC50 is above 30 µM.

For `NS(=O)(=O)c1ccc(-c2cccc(Oc3ccc(F)c(O)c3)n2)cc1` [Example 76, 4-(6-(4-fluoro-3-hydroxyphenoxy)pyridin-2-yl)benzene sulfonamide], the half-maximal inhibitory concentration (IC50) was 10 to 30 µM.

On to `CS(=O)(=O)c1ccc(-c2cccc(Oc3ccc(F)c(O)c3)n2)cc1` [Example 77, 2-fluoro-5-((6-(4-(methylsulfonyl)phenyl)pyridin-2-yl)oxy)phenol], for which the IC50 lay in the range of 10 to 30 µM.

In turn, `Oc1cc(Oc2cccc(-c3c(F)cccc3F)n2)ccc1F` [Example 78, 5-((6-(2,6-difluorophenyl)pyridin-2-yl)oxy)-2-fluorophenol] had an IC50 of 5 to 10 µM.

As for `CC(=O)Nc1cccc(-c2cccc(Oc3ccc(F)c(O)c3)n2)c1` [Example 79, N-(3-(6-(4-fluoro-3-hydroxyphenoxy)pyridin-2-yl)phenyl)acetamide], the IC50 is at most 5 µM.

`CNC(=O)c1ccc(-c2cccc(Oc3ccc(F)c(O)c3)n2)cc1` [Example 80, 4-(6-(4-fluoro-3-hydroxyphenoxy)pyridin-2-yl)-N-methylbenzamide] displayed a half-maximal inhibitory concentration (IC50) of at most 5 µM.

For `CNC(=O)c1cccc(-c2cccc(Oc3ccc(F)c(O)c3)n2)c1` [Example 81, 3-(6-(4-fluoro-3-hydroxyphenoxy)pyridin-2-yl)-N-methylbenzamide], the concentration for half-maximal inhibition (IC50) was at most 5 µM.

`Oc1cc(Oc2cccc(-c3ccc(Cl)cc3)n2)ccc1F` [Example 82, 5-{[6-(4-chlorophenyl)pyridin-2-yl]oxy}-2-fluorophenol] gave a half-maximal inhibitory concentration (IC50) of at most 5 µM.

The compound `Oc1cc(Oc2cccc(-c3ccccc3Cl)n2)ccc1F` [Example 83, 5-{[6-(2-chlorophenyl)pyridin-2-yl]oxy}-2-fluorophenol] had a half-maximal inhibitory concentration (IC50) of at most 5 µM.

Compound `Oc1cc(Oc2cccc(-c3ccc(F)cc3F)n2)ccc1F` [Example 84, 5-{[6-(2,4-difluorophenyl)pyridin-2-yl]oxy}-2-fluorophenol] showed a 50% inhibitory concentration (IC50) of 5 to 10 µM.

As for `Oc1cc(Oc2cccc(-c3ccc(F)c(Cl)c3)n2)ccc1F` [Example 85, 5-{[6-(3-chloro-4-fluorophenyl)pyridin-2-yl]oxy}-2-fluorophenol], the half-maximal inhibitory concentration (IC50) is 5 to 10 µM.

Take `Oc1cc(Oc2cccc(-c3cccc(Cl)c3F)n2)ccc1F` [Example 86, 5-{[6-(3-chloro-2-fluorophenyl)pyridin-2-yl]oxy}-2-fluorophenol]: the IC50 is at most 5 µM.

Compound `COc1ccc(-c2cccc(Oc3ccc(F)c(O)c3)n2)c(F)c1` [Example 87, 2-fluoro-5-{[6-(2-fluoro-4-methoxyphenyl)pyridin-2-yl]oxy}phenol] showed a half-maximal inhibitory concentration (IC50) of at most 5 µM.

With `Oc1cc(Oc2cccc(-c3cc(F)ccc3F)n2)ccc1F` [Example 88, 5-{[6-(2,5-difluorophenyl)pyridin-2-yl]oxy}-2-fluorophenol], the IC50 is at most 5 µM.

Regarding `Oc1cc(Oc2cccc(-c3cc(F)cc(F)c3)n2)ccc1F` [Example 89, 5-{[6-(3,5-difluorophenyl)pyridin-2-yl]oxy}-2-fluorophenol], the IC50 is at most 5 µM.

In turn, `Oc1cc(Oc2cccc(-c3ccccc3F)n2)ccc1F` [Example 90, 2-fluoro-5-((6-(2-fluorophenyl)pyridin-2-yl)oxy)phenol] returned an IC50 of at most 5 µM.

In the case of `N#Cc1ccc(-c2cccc(Oc3ccc(F)c(O)c3)n2)c(F)c1` [Example 92, 3-fluoro-4-(6-(4-fluoro-3-hydroxyphenoxy)pyridin-2-yl)benzonitrile], the IC50 was above 30 µM.

As for `O=S(=O)(Nc1cccc(Oc2cccc(-c3cccc(O)c3F)n2)c1)C1CC1` [Example 93, N-(3-{[6-(2-fluoro-3-hydroxyphenyl)pyridin-2-yl]oxy}phenyl)cyclopropane-sulfonamide], the IC50 was above 30 µM.

`CS(=O)(=O)NCc1cccc(Oc2cccc(-c3cccc(O)c3F)n2)c1` [Example 94, N-[(3-{[6-(2-fluoro-3-hydroxyphenyl)pyridin-2-yl]oxy}phenyl)methyl]methane-sulfonamide] yielded an IC50 above 30 µM.

`COc1cccc(-c2cccc(Oc3cccc(NS(=O)(=O)C4CC4)c3)n2)c1F` [Example 95, N-(3-{[6-(2-fluoro-3-methoxyphenyl)pyridin-2-yl]oxy}phenyl)cyclopropane-sulfonamide] yielded an IC50 above 30 µM.

Consider `COc1cccc(-c2cccc(Oc3cccc(CNS(C)(=O)=O)c3)n2)c1F` [Example 96, N-[(3-{[6-(2-fluoro-3-methoxyphenyl)pyridin-2-yl]oxy}phenyl)methyl]methane-sulfonamide], for which the IC50 was above 30 µM.

`Oc1cccc(-c2cccc(Oc3ccc(F)c(O)c3)n2)c1` [Example 97, 2-fluoro-5-{[6-(3-hydroxyphenyl)pyridin-2-yl]oxy}phenol] gave an IC50 of 10 to 30 µM.

In turn, `Oc1cc(Oc2cccc(-c3ccc(C(F)(F)F)cc3)n2)ccc1F` [Example 98, 2-fluoro-5-((6-(4-(trifluoromethyl)phenyl)pyridin-2-yl)oxy)phenol] had an IC50 of 10 to 30 µM.

The compound `COc1ccccc1-c1cccc(Oc2ccc(F)c(O)c2)n1` [Example 99, 2-fluoro-5-((6-(2-methoxyphenyl)pyridin-2-yl)oxy)phenol] yielded an IC50 of 10 to 30 µM.

In the case of `Oc1cc(Oc2cccc(-c3ccc(C(F)(F)F)c(Cl)c3)n2)ccc1F` [Example 100, 5-((6-(3-chloro-4-(trifluoromethyl)phenyl)pyridin-2-yl)oxy)-2-fluorophenol], the IC50 fell in the range of 10 to 30 µM.

Consider `Oc1cc(Oc2cccc(-c3ccc(Cl)c(C(F)(F)F)c3)n2)ccc1F` [Example 101, 5-((6-(4-chloro-3-(trifluoromethyl)phenyl)pyridin-2-yl)oxy)-2-fluorophenol], for which the IC50 is 10 to 30 µM.

Compound `COc1ccc(-c2cccc(Oc3ccc(F)c(O)c3)n2)cc1` [Example 102, 2-fluoro-5-((6-(4-methoxyphenyl)pyridin-2-yl)oxy)phenol] returned a concentration for half-maximal inhibition (IC50) of 10 to 30 µM.

The compound `Oc1cc(Oc2cccc(-c3cccc(C(F)(F)F)c3)n2)ccc1F` [Example 103, 2-fluoro-5-((6-(3-(trifluoromethyl)phenyl)pyridin-2-yl)oxy)phenol] had a 50% inhibitory concentration (IC50) of 5 to 10 µM.

On to `N#Cc1cccc(-c2cccc(Oc3ccc(F)c(O)c3)n2)c1` [Example 104, 3-(6-(4-fluoro-3-hydroxyphenoxy)pyridin-2-yl)benzonitrile], for which the IC50 lay within 10 to 30 µM.

On to `COc1cccc(-c2cccc(Oc3ccc4cn[nH]c4c3)n2)c1F` [Example 105, 6-{[6-(2-fluoro-3-methoxyphenyl)pyridin-2-yl]oxy}-1H-indazole], for which the concentration for half-maximal inhibition (IC50) was above 30 µM.

Compound `CC(=O)Nc1cc(Oc2cccc(-c3cccc(O)c3F)n2)ccc1F` [Example 106, N-(2-fluoro-5-{[6-(2-fluoro-3-hydroxyphenyl)pyridin-2-yl]oxy}phenyl)acetamide] came in with an IC50 above 30 µM.

Consider `COc1cccc(-c2cccc(Oc3ccc(F)c(NC(C)=O)c3)n2)c1F` [Example 107, N-(2-fluoro-5-{[6-(2-fluoro-3-methoxyphenyl)pyridin-2-yl]oxy}phenyl)acetamide], for which the IC50 is above 30 µM.

For `COc1cccc(-c2cccc(Oc3ccc(O)nc3)n2)c1F` [Example 108, 5-{[6-(2-fluoro-3-methoxyphenyl)pyridin-2-yl]oxy}-1,2-dihydropyridin-2-one], the concentration for half-maximal inhibition (IC50) is above 30 µM.

In turn, `CNC(=O)c1cc(Oc2cccc(-c3cccc(OC)c3F)n2)ccc1F` [Example 109, 2-fluoro-5-{[6-(2-fluoro-3-methoxyphenyl)pyridin-2-yl]oxy}-N-methylbenzamide] came in with an IC50 above 30 µM.

As to `COc1cc(Oc2cccc(-c3ccc4cn[nH]c4c3)n2)ccc1F` [Example 110, 6-[6-(4-fluoro-3-methoxyphenoxy)pyridin-2-yl]-2H-indazole], the IC50 was above 30 µM.
